Data as given in patent US7148249B2, “Indolinones substituted by heterocycles, the preparation thereof and their use as medicaments” (Boehringer Ingelheim Pharma GmbH & Co. KG, priority 2002, dated 2006).

Key:
[1] = system: Human umbilical endothelial cells (HUVEC); assay: Inhibition of VEGF165-stimulated HUVEC proliferation (3H-thymidine incorporation); assay type: cell-based; conditions: Homo sapiens; HUVEC proliferation stimulated with 5 ng/ml VEGF165 and 10 μg/ml heparin; 76 h incubation + 16 h 3H-thymidine
Description: Human umbilical endothelial cells (HUVEC) were cultivated in IMDM (Gibco BRL), supplemented with 10% foetal calf serum (FBS) (Sigma), 50 μM of β-mercaptoethanol (Fluka), standard antibiotics, 15 μg/ml of endothelial cell growth factor (ECGS, Collaborative Biomedical Products) and 100 μg/ml of heparin (Sigma) on gelatine-coated culture dishes (0.2% gelatine, Sigma) at 37° C., under 5% CO2 in a water-saturated atmosphere.
In order to investigate the inhibitory activity of the compounds according to the invention the cells were “starved” for 16 hours, i.e. kept in culture medium without growth factors (ECGS+heparin). The cells were detached from the culture dishes using trypsin/EDTA and washed once in serum-containing medium. Then they were seeded out in amounts of 2.5×10^3 cells per well.
The proliferation of the cells was stimulated with 5 ng/ml of VEGF165 (vascular endothelial growth factor; H. Weich, GBF Braunschweig) and 10 μg/ml of heparin. As a control, 6 wells in each dish were not stimulated.
The compounds according to the invention were dissolved in 100% dimethylsulphoxide and added to the cultures in various dilutions as triple measurements, the maximum dimethylsulphoxide concentration being 0.3%.
The cells were incubated for 76 hours at 37° C., then for a further 16 hours ^3H-thymidine (0.1 μCi/well, Amersham) was added in order to determine the DNA synthesis. Then the radioactively labelled cells were immobilised on filter mats and the radioactivity incorporated was measured in a β-counter. In order to determine the inhibitory activity of the compounds according to the invention the mean value of the non-stimulated cells was subtracted from the mean value of the factor-stimulated cells (in the presence or absence of the compounds according to the invention).
The relative cell proliferation was calculated as a percentage of the control (HUVEC without inhibitor) and the concentration of active substance which inhibits the proliferation of the cells by 50% (IC50) was determined.

Row | SMILES | IC50 [1] [nM] | melting point
1 | CN(C)Cc1ccc(N/C(=C2\C(=O)Nc3ccccc32)c2ccc3nc[nH]c3c2)cc1 [(ag), 3-(Z)-{1-[4-(dimethylaminomethyl)-phenylamino]-1-(benzimidazol-5-yl)-methylene}-2-indolinone] | 31 | 273 to 277 °C (dec.)
2 | O=C1Nc2cc(Cl)ccc2/C1=C(/Nc1ccc(CN2CCCC2)cc1)c1ccc2nc[nH]c2c1 [(ai), 3-(Z)-{1-[4-(pyrrolidin-1-yl-methyl)-phenylamino]-1-(benzimidazol-5-yl)-methylene}-6-chloro-2-indolinone] | 3 | 277 to 279 °C
3 | CN(C)CC(=O)N(C)c1ccc(N/C(=C2\C(=O)Nc3ccccc32)c2ccc3c(c2)OCO3)cc1 [(aj), 3-(Z)-{1-(4-[N-methyl-N-(dimethylaminomethylcarbonyl)-amino]-phenylamino)-1-(3,4-methylenedioxyphenyl)-methylene}-2-indolinone] | 13 | 221 to 222 °C
4 | CN(C)CC(=O)N(C)c1ccc(N/C(=C2\C(=O)Nc3cc(Cl)ccc32)c2ccc3c(c2)ncn3C)cc1 [(ak), 3-(Z)-{1-(4-[N-methyl-N-(dimethylaminomethylcarbonyl)-amino]-phenylamino)-1-(1-methyl-benzimidazol-5-yl)-methylene}-6-chloro-2-indolinone] | 30 | 270 °C
5 | CCCS(=O)(=O)N(CCN(C)C)c1ccc(N/C(=C2\C(=O)Nc3cc(Cl)ccc32)c2ccncc2)cc1 [(ax), 3-(Z)-{1-(4-[N-(propanesulphonyl)-N-(2-dimethylaminoethyl)-amino]-phenylamino)-1-(4-pyridyl)-methylene}-6-chloro-2-indolinone] | 37 | 228 to 232 °C
6 | Cc1nc2ccc(/C(Nc3ccc(CN4CCCC4)cc3)=C3/C(=O)Nc4cc(Cl)ccc43)cc2[nH]1 [(ay), 3-(Z)-{1-[4-(pyrrolidin-1-yl-methyl)-phenylamino]-1-(2-methyl-benzimidazol-5-yl)-methylene}-6-chloro-2-indolinone] | 19 | 295 to 297 °C (dec.)
7 | CN(C)Cc1ccc(N/C(=C2\C(=O)Nc3cc(Cl)ccc32)c2ccc3c(c2)ncn3C)cc1 [(f), 3-(Z)-{1-[4-(dimethylaminomethyl)-phenylamino]-1-(1-methyl-benzimidazol-5-yl)-methylene}-6-chloro-2-indolinone] | 2 | 288 °C (dec.)
8 | CCNCc1ccc(N/C(=C2\C(=O)Nc3cc(F)ccc32)c2ccc3c(c2)OCCO3)cc1 [(l), 3-(Z)-{1-[4-(ethylaminomethyl)-phenylamino]-1-(3,4-ethylenedioxyphenyl)-methylene}-6-fluoro-2-indolinone] | 10 | 153 to 154 °C
9 | CCNCc1ccc(N/C(=C2\C(=O)Nc3cc(C(=O)OC)ccc32)c2ccc3c(c2)OCCO3)cc1 [(u), 3-(Z)-{1-(4-[ethylamino-methyl]-phenylamino)-1-(3,4-ethylenedioxyphenyl)-methylene}-6-methoxycarbonyl-2-indolinone] | 0.8 | 266 °C
10 | COC(=O)c1ccc2c(c1)NC(=O)/C2=C(\Nc1ccc(CN2CCN(C)CC2)cc1)c1ccc2c(c1)OCCO2 [(v), 3-(Z)-{1-(4-[4-methylpiperazin-1-yl-methyl]-phenylamino)-1-(3,4-ethylenedioxy-phenyl)-methylene}-6-methoxycarbonyl-2-indolinone] | 1 | 271 to 273 °C
